Results: US20090297624A1, “ARSENIC THERAPY FOR AUTOIMMUNE AND/OR INFLAMMATORY DISEASES IN MICE AND HUMANS” (CENTRE NATIONALE DE LA RECHERCHE SCIENTIFIQUE (CNRS), priority 2002, published 2009)
Values joined by “and” are separate entries in the source; they are usually repeats but may differ in a detail not shown here. Equal entries are not always repeated.

Columns and labels:
MRL+/+→MRL+/+ chimeras = experiment: As2O3 treatment of control MRL+/+→MRL+/+ chimeras; type: in vivo, mouse; conditions: serum ELISA
Description: (§1) Hematopoietic chimeras. Spleen and bone marrow cells from MRL/lpr were injected i.v. into MRL+/+ lethally irradiated (1000 cGy) in a ^137Cesium irradiator (MRL/Lpr→MRL+/+ chimeras). The control group consisted of irradiated MRL+/+ grafted with MRL+/+ cells (MRL+/+→MRL+/+ chimeras). All mice used in this graft protocol were sex matched.
(§2) MRL/Lpr→MRL+/+ and MRL+/+→MRL+/+ chimeras were injected i.p. daily with 2.5, 5, 7.5, 10 or 15 μg/g body weight of As2O3; controls received a daily i.p. injection of PBS (volume weight-determined). Treatments were initiated one week post-grafting.
(§3) Serum levels of IFN-α, IFN-γ, soluble FasL, IL-18, TNF-α were assayed using the Mouse Interferon-alpha (PBL Biomedical laboratories, New Jersey, USA), the Mouse Interferon-gamma ELISA Ready-SET-Go (eBioscience, San Diego, Calif.), Mouse Fas Ligand Immunossay (Quantikine M kit; R&D systems, Minneapolis, Minn.), Mouse IL-18 ELISA (R&D Systems), Mouse TNF-α Immunoassay (R&D systems), respectively, following the manufacturer's instructions.

[1] = system: NOD (non obese diabetic) mice; experiment: Arsenic treatment of diabetic NOD mice, glucose in urine; type: in vivo, mouse; conditions: 5-month-old female NOD mice treated for 2 months
Description: 5-Month-old female NOD (non obese diabetic) mice, which were developing the first symptoms of diabetes, were treated for 2 months with arsenic. The evolution of the pathology was evaluated by measuring the amount of glucose in the urine.

MRL+/+ mouse = experiment: Arsenic treatment of control MRL+/+ mice; type: in vivo
Description: (§4) Initially, the inventors determined the optimum dose of arsenic (As2O3) to be injected into the MRL/lpr mice. Two concentrations were chosen: 1 and 5 μg of As2O3/g of mouse. At date T0, these injections were given daily. […] Knowing that the MRL/lpr autoimmune mice die, on average, after 4 to 5 months, compared with the normal MRL+/+ mice which die after ˜2 years, the inventors decided to conserve, for the subsequent treatments, only the dose of 5 μg/g of mice.
(§5) Each of the five groups has its controls consisting in injecting the dilution buffer for the arsenic. In addition, the animals present in the control and treated groups are derived from the same litter, which makes it possible to obtain reliable comparisons. At T0+5 months, more than 60 mice (MRL/lpr and MRL+/+) are undergoing treatment.
(§6) In parallel with these studies on the skin, other organs that are targets for autoimmune pathologies, such as the kidney, the lung, the liver, the eye, etc., were removed and analyzed by anatomopathology. In addition, these various organs, along with the spleen, the lymph nodes and the thymus, were weighed.
(§7) The aim of this group of animals, which was begun at T0, is to evaluate the preventive effect of an arsenic treatment on the development of the lymphoproliferation and of the autoimmune pathologies. To do this, 4 groups of animals 1.5 months old were formed. Two of these groups consist of MRL/lpr mice and the other two groups consist of MRL+/+ mice. One MRL/lpr group and one MRL+/+ group were treated with 5 μg of arsenic per gram of mouse, and the other two control groups were treated with the dilution buffer for the arsenic. At T0+1 month, animals from each group were sacrificed. The organs analyzed were the thymus, the spleen, the lymph nodes, the skin, the liver, the kidney and the heart. […] The arsenic therefore has a preventive effect on the development of the lymphoproliferation. The phenotype of the lymphoid populations present in this spleen and this node was determined by flow cytometry. As for the results for group 1, the arsenic makes it possible to eliminate the population of double-negative T cells which accumulate as the MRL/lpr mouse ages. In addition, the organs of these treated mice have a normal weight; there is therefore neither the lympho-proliferation nor the hepatomegaly that are observed in the control mice. The liver, the spleen, a lymph node, an eye, etc., were removed in order to be analyzed by anatomopathology.

MRL/lpr mouse [2] = experiment: Curative arsenic (As2O3) treatment of MRL/lpr autoimmune mice; type: in vivo
From the text: The inventors have studied mice referred to as MRL mice homozygous for the lpr mutation (MRL/lpr). Lymphoproliferation (lpr) results in an accumulation of activated T lymphocytes, of phenotype CD4^+CD8^− or CD4^−CD8^+ which have escaped the process of negative regulation via the apoptotic pathway. Thus, in MRL/lpr mice, hypertrophy of lymph nodes occurs, the mass of which is 100 times greater than that of the lymph nodes of MRL+/+mice, which are congenic for the lpr gene, and a spleen whose size is multiplied by 7 and a thymus whose weight, at the 22nd week, is double that of the MRL+/+ mice are observed. These activated T lymphocytes which accumulate will gradually repress the expression of their CD4 or CD8 receptors and become double-negative T lymphocytes having the phenotype: TCRαβCD4^−CD8^−B220^+, which will be responsible for the lymphoproliferation.
The MRL/lpr mouse is in particular a spontaneous model of autoimmune diseases such as disseminated lupus erythematosus with the presence of erythematous lesions of the skin and of rheumatoid arthritis. […] These mice produce, as they age, a large quantity of autoantibodies which are responsible for a lethal glomerulonephritis due to immunocomplex deposits in the glomeruli of the kidney. Thus, the lifespan of the MRL/lpr mouse is considerably shortened compared with that of the MRL+/+ mouse: ˜4-5 months in the MRL/lpr mouse compared with ˜2 years in the MRL+/+ mouse.
as §4
From the end of the first week of treatment, the inventors formed 5 groups of animals: • b 1st group, aimed at the curative treatment of an already present pathology, • 2nd group, aimed at preventing the appearance of pathologies, • 3rd group, aimed at determining the lifespan of the treated animals, • 4th group, aimed at determining the dose effect, • 5th group, aimed at evaluating the effect of stopping the treatment.
as §5
This study is aimed at the curative treatment of an already present pathology.
as §6
After 1 month and 20 days of treatment, a group of 3 control MRL/lpr mice and a group of 3 treated MRL/lpr mice were sacrificed in order to evaluate the effectiveness of the treatment on the lympho-proliferation. The organs analyzed were the thymus, the spleen and the lymph nodes. […] The phenotype of the lymphoid populations present in this spleen and this node was determined by flow cytometry. […] In addition, this cell population of abnormal phenotype is replaced with T lymphocytes of normal phenotype CD4^+CD8^− and CD4^−CD8^+ (FIG. 5). However, the level of reduction of the number of these double-negative T cells depends on the duration of the treatment. […]

MRL/lpr mouse [3] = experiment: Preventive arsenic treatment of MRL/lpr mice; type: in vivo
Description: This study is aimed at preventing the appearance of the pathologies.
as §7
It is desirable to determine very precisely the preventive and curative effect of various doses of arsenic on the evolution of the pathologies developed by the MRL/lpr mice. Five groups of animals (MRL/lpr and MRL+/+) were treated with the following concentrations: 2.5, 5, 7.5, 10 and 15 μg/g of mouse.

MRL/lpr→MRL+/+ chimeras = experiment: As2O3 treatment of MRL/lpr→MRL+/+ chimeras (GVH reaction); type: in vivo, mouse
Description: In addition, lethally irradiated MRL+/+ mice had their bone marrow reconstituted with bone marrow from MRL/lpr mice (MRL/lpr→MRL+/+ chimeras) or with bone marrow from MRL+/+ mice (MRL+/+→MRL+/+ chimeras) as a control. After reconstitution, the chimeras are treated with arsenic or are not treated. While 100% of the untreated MRL/lpr→MRL+/+ chimeras died of a graft-versus-host (GvH) reaction two weeks after the transplant, the chimeras treated with arsenic were alive. The arsenic is therefore effective against GvH and makes it possible to spectacularly increase the survival of the animals.
as §1, §2
Blood samples were collected at different times after grafting and glutamic-oxaloacetic transaminase (GOT) and glutamic-pyruvic transaminase (GPT) levels were measured (IU/l).
as §3
Serum levels of nitrite were measured using the Nitric Oxide quantification kit (Active Motif, Rixensart, Belgium), according to the manufacturer's instructions (data not shown).

[4] = MRL+/+ mice treated with arsenic
[5] = MRL/lpr mice treated with arsenic
[6] = MRL/lpr, treated with arsenic for two months, treatment then stopped for two months
[7] = end of the first month of treatment, 5 μg/g
[8] = preventive, 5 μg/g, at T0+1 month

O=[As]O[As]=O (centres unmarked) [As2O3]
IFN-α synthesis (MRL+/+→MRL+/+ chimeras; FIG. 11A): not affected
TNF-α synthesis (MRL+/+→MRL+/+ chimeras; FIG. 11B): not affected
glucose level in the urine [1]: normal glucose level in the urine
Organ weight, 2 lungs (MRL+/+ mouse; [4]): 0.32 grams and 0.30 grams
Organ weight, axillary nodes (MRL+/+ mouse; [4]): 0.01 grams
Organ weight, heart (MRL+/+ mouse; [4]): 0.22 grams
Organ weight, kidney (MRL+/+ mouse; [4]): 0.44 grams
Organ weight, liver (MRL+/+ mouse; [4]): 2.40 grams and 2.45 grams
Organ weight, mesenteric nodes (MRL+/+ mouse; [4]): 0.05 grams and 0.03 grams
Organ weight, spleen (MRL+/+ mouse; [4]): 0.10 grams and 0.15 grams
treatment-related pathologies (MRL+/+ mouse; MRL+/+ mice, 5 μg/g, at T0+5 months): no sign of treatment-related pathologies
curative effect (skin lesions, size of the nodes) (MRL/lpr mouse [2]; 2.5 μg/g of mouse): not sufficiently effective
lupus-specific skin lesions (MRL/lpr mouse [2]; 5 μg of As2O3/g of mouse daily, after one week of treatment): spectacular signs of improvement
skin lesions (MRL/lpr mouse [2]; 5 μg/g): complete disappearance of skin lesions
skin lesions (MRL/lpr mouse [2]; 7.5 μg/g): complete disappearance of skin lesions
skin lesions (MRL/lpr mouse [2]; 10 μg/g): complete disappearance of skin lesions
toxicity, curative treatment (MRL/lpr mouse [2]; 15 μg/g of mouse): lethal in a few days
immunocomplexes in the kidney (MRL/lpr mouse [2]; FIG. 7): absence of immunocomplexes in the kidney
infiltration of the kidney by cells of the immune system (MRL/lpr mouse [2]; FIG. 7): do not shown any infiltration
Organ weight, 2 lungs (MRL/lpr mouse [2]; [5]): 0.33 grams and 0.40 grams
Organ weight, axillary nodes (MRL/lpr mouse [2]; [5]): 0.01 grams and 0.02 grams
Organ weight, heart (MRL/lpr mouse [2]; [5]): 0.20 grams and 0.25 grams
Organ weight, kidney (MRL/lpr mouse [2]; [5]): 0.52 grams and 0.53 grams
Organ weight, liver (MRL/lpr mouse [2]; [5]): 2.58 grams and 2.89 grams
Organ weight, mesenteric nodes (MRL/lpr mouse [2]; [5]): 0.05 grams
Organ weight, spleen (MRL/lpr mouse [2]; [5]): 0.13 grams and 0.17 grams
Organ weight, 2 lungs (MRL/lpr mouse [2]; [6]): 0.51 grams and 0.50 grams
Organ weight, heart (MRL/lpr mouse [2]; [6]): 0.29 grams and 0.26 grams
Organ weight, kidney (MRL/lpr mouse [2]; [6]): 0.55 grams
Organ weight, liver (MRL/lpr mouse [2]; [6]): 3.21 grams and 3.12 grams
Organ weight, mesenteric nodes (MRL/lpr mouse [2]; [6]): 1.97 grams and 1.03 grams
size of the spleen and of a mesenteric node (MRL/lpr mouse [2]; after 1 month and 20 days of treatment, FIG. 4): spectacular decrease
population of double-negative T lymphocytes TCRαβCD4-CD8-B220+ (MRL/lpr mouse [2]; after 1 month and 20 days of treatment, flow cytometry of spleen and node): virtually complete elimination
survival (MRL/lpr mouse [2]; after 4 months, FIG. 9 legend): all the treated animals are alive
survival and signs of pathology (MRL/lpr mouse [2]; after 35 weeks of treatment, FIG. 9): still alive with no signs of lymphoproliferation or of autoimmune pathologies
pulmonary architecture, infiltration by lymphoid cells (MRL/lpr mouse [2]; anatomopathology, FIG. 3): normal pulmonary architecture
amount of cytokines (alpha-IFN, gamma-IFN, IL-18, TNF-alpha, soluble FasL) (MRL/lpr mouse [2]; compared with normal MRL+/+ mice, FIG. 6): returns the amount of cytokines to a normal level
exophthalmia (MRL/lpr mouse [2]; [7]): spectacular decrease
lupus-related skin lesions (MRL/lpr mouse [2]; [7]): complete disappearance
lowest effective dose (MRL/lpr mouse [2]; mouse): 5 µg/g
glomerulonephritis (MRL/lpr mouse [2]; mouse, in vivo): significant reduction
weight of lymph nodes, spleen and liver compared to MRL+/+ mouse (MRL/lpr mouse [2]; summary of table 1): returns the following organs to a normal weight
double-negative T cells (MRL/lpr mouse [2]; treatment of three months): eliminate all the double-negative T cells
pathologies after stopping treatment (MRL/lpr mouse [2]; treatment stopped for three months): reappearance of the lymphoproliferation and of the hepatomegaly
treated mice alive (MRL/lpr mouse [2]; very sick MRL/lpr mice, at T0+14 weeks): 100%
toxicity, preventive treatment (MRL/lpr mouse [3]; 15 μg/g of mouse): very toxic and the animals died after two months
non-lymphoid organs such as the heart or the kidney (MRL/lpr mouse [3]; [8]): not modified by the treatment
organ weight (lymphoproliferation, hepatomegaly) (MRL/lpr mouse [3]; [8]): normal weight
lymphoproliferation (MRL/lpr mouse [3]; preventive, 1.5 months old mice, 5 μg/g, at T0+1 month): virtually complete absence of the lymphoproliferation
soluble and membrane-associated FasL levels (MRL/lpr→MRL+/+ chimeras; ELISA of sera and Western blotting of lymphoid cell lysates, FIG. 10A): sharply decreased
serum IFN-α level (MRL/lpr→MRL+/+ chimeras; ELISA, FIG. 11A): maintained normal cytokine concentrations
serum TNF-α level (MRL/lpr→MRL+/+ chimeras; ELISA, FIG. 11B): maintained normal cytokine concentrations
Transaminase levels (GOT) (MRL/lpr→MRL+/+ chimeras; FIG. 10B): normalised
level of other inflammatory cytokines and NO (MRL/lpr→MRL+/+ chimeras; data not shown): reduced
survival (MRL/lpr→MRL+/+ chimeras; male and female chimeras with established GVH reaction, P<0.001, FIG. 12): significantly prolonged survival
survival of chimeras (MRL/lpr→MRL+/+ chimeras; two weeks after the transplant): alive
